Test results reported in US12263155B2, “Combinations of monoamine oxidase inhibitors and serotonin receptor agonists and their therapeutic use” (Remedi, Inc., priority 2022, dated 2025).

Columns and labels:
[1] = Phase 1 single dose escalation pharmacokinetics; settings: for Clast / Cmax/Dose / Tlast / % AUCextrap / AUCinf/Dose / kel / AUC(0-t): mean; for Cmax / Tmax / concentration at 24 h / AUC(0-t) / AUC(0-inf) / CL/F / Vd/F / half-life: male, human, plasma, po
Procedure: (§1) Methods: The trial was a Phase 1, single center, double-blind, placebo-controlled, sequential group, acute dose escalation study of the safety and pharmacokinetics of seven (7) CX157 dose levels in healthy male volunteers. Each of the seven (7) dose groups consisted of six (6) subjects, with the exception of cohort 2 (CX157 10 mg or placebo) which enrolled only five (5) subjects. Within each dose group, four (4) subjects were randomized to CX157 and two (2) subjects to placebo. Subjects were normal healthy volunteers confined to the study center for approximately 4 days, beginning approximately 16 hours before exposure to study drug and ending approximately 48 hours after exposure to study drug. Safety and tolerability was assessed for each dose group by the Principal Investigator before advancing to the next scheduled dose group. CX157 was administered as a fully solubilized microemulsion in Labrasol™
Plasma samples for the pharmacokinetic analysis of CX157 were obtained at predose (30 minutes prior to dosing), 10, 20, 30, 60 and 90 minutes, 2, 4, 8, 12, 16, 24, 36 and 48 hours after dosing. […] FIG. 11 details the plasma concentrations of CX157 (in ng/mL) of subjects for each of the seven dose groups, wherein the dosage amounts of CX157 administered to the subjects were 5 mg, 10 mg, 15 mg, 20 mg, 40 mg, 80 mg, and 120 mg.
Formulation: Each natural/transparent Licaps® size 0 hard gelatin capsule contains 5 mg or 10 mg CX157 in Labrasol™; each capsule is banded with a green gelatin band that is comprised of gelatin NF and polysorbate-80 NF. CX157 Liquid Filled Capsules are packaged in white, opaque, high density polyethylene (HDPE) bottles with screw-top polypropylene child resistant caps. Each bottle contains 30 capsules per bottle. CX157 Liquid Filled Capsules, 5 mg and 10 mg are stored long-term at controlled room temperature conditions [i15° C. to 30° C. (59° F. to 86° F.)].

[2] = Procedure: as §1
[3] = healthy males, single oral 5 mg
[4] = healthy males, single oral 10 mg
[5] = healthy males, single oral 15 mg
[6] = healthy males, single oral 20 mg
[7] = healthy males, single oral 40 mg
[8] = healthy males, single oral 80 mg

Structure (SMILES): O=S1(=O)c2ccc(F)cc2Oc2cc(OCC(F)(F)F)ccc21 [CX157, 3-fluoro-7(2,2,2-trifluorethoxy)phenoxathiine-10,10-dioxide]
- Clast [1, 3]: 0.15 ng/mL
- Cmax/Dose [1, 3]: 87
- Tlast [1, 3]: 17 h
- % AUCextrap [1, 4]: 6.2%
- AUCinf/Dose [1, 4]: 906
- Clast [1, 4]: 0.2 ng/mL
- Cmax/Dose [1, 4]: 182
- Tlast [1, 4]: 40 h
- kel [1, 4]: 0.0371 h⁻¹
- % AUCextrap [1, 5]: 5%
- AUCinf/Dose [1, 5]: 673
- Clast [1, 5]: 0.38 ng/mL
- Cmax/Dose [1, 5]: 212
- Tlast [1, 5]: 45 h
- kel [1, 5]: 0.0529 h⁻¹
- % AUCextrap [1, 6]: 3.1%
- AUCinf/Dose [1, 6]: 701
- Clast [1, 6]: 0.24 ng/mL
- Cmax/Dose [1, 6]: 251
- Tlast [1, 6]: 48 h
- kel [1, 6]: 0.0488 h⁻¹
- % AUCextrap [1, 7]: 3.3%
- AUCinf/Dose [1, 7]: 619
- Clast [1, 7]: 0.48 ng/mL
- Cmax/Dose [1, 7]: 234
- Tlast [1, 7]: 48 h
- kel [1, 7]: 0.0459 h⁻¹
- % AUCextrap [1, 8]: 5.2%
- AUCinf/Dose [1, 8]: 720
- Clast [1, 8]: 1.9 ng/mL
- Cmax/Dose [1, 8]: 232
- Tlast [1, 8]: 48 h
- kel [1, 8]: 0.0456 h⁻¹
- Cmax ([1]; 5 mg): 5.8 ng/mL
- Tmax ([1]; 5 mg): 0.75 h
- concentration at 24 h ([1]; 5 mg): 0.14 ng/mL
- AUC(0-t) ([1]; 5 mg, AUC0-24, healthy males, single oral 5 mg): 21.6 ng·h/mL
- AUC(0-t) ([1]; 5 mg, AUClast, healthy males, single oral 5 mg): 16.5 ng·h/mL
- AUC(0-inf) ([1]; 10 mg): 102 ng·h/mL
- CL/F ([1]; 10 mg): 19.7 mL/min/kg
- Cmax ([1]; 10 mg): 20.8 ng/mL
- Tmax ([1]; 10 mg): 1.17 h
- Vd/F ([1]; 10 mg): 33.3 L/kg
- concentration at 24 h ([1]; 10 mg): 0.37 ng/mL
- half-life ([1]; 10 mg): 18.9 h
- AUC(0-t) ([1]; 10 mg, AUC0-24, healthy males, single oral 10 mg): 63 ng·h/mL
- AUC(0-t) ([1]; 10 mg, AUC0-48, healthy males, single oral 10 mg): 96 ng·h/mL
- AUC(0-t) ([1]; 10 mg, AUClast, healthy males, single oral 10 mg): 69 ng·h/mL
- AUC(0-inf) ([1]; 15 mg): 129 ng·h/mL
- CL/F ([1]; 15 mg): 30.2 mL/min/kg
- Cmax ([1]; 15 mg): 42.2 ng/mL
- Tmax ([1]; 15 mg): 0.88 h
- Vd/F ([1]; 15 mg): 33.7 L/kg
- concentration at 24 h ([1]; 15 mg): 1 ng/mL
- half-life ([1]; 15 mg): 13.3 h
- AUC(0-t) ([1]; 15 mg, AUC0-24, healthy males, single oral 15 mg): 107 ng·h/mL
- AUC(0-t) ([1]; 15 mg, AUC0-48, healthy males, single oral 15 mg): 129 ng·h/mL
- AUC(0-t) ([1]; 15 mg, AUClast, healthy males, single oral 15 mg): 122 ng·h/mL
- AUC(0-inf) ([1]; 20 mg): 154 ng·h/mL
- CL/F ([1]; 20 mg): 26.5 mL/min/kg
- Cmax ([1]; 20 mg): 56.1 ng/mL
- Tmax ([1]; 20 mg): 0.75 h
- Vd/F ([1]; 20 mg): 32.9 L/kg
- concentration at 24 h ([1]; 20 mg): 0.74 ng/mL
- half-life ([1]; 20 mg): 14.4 h
- AUC(0-t) ([1]; 20 mg, AUC0-24, healthy males, single oral 20 mg): 139 ng·h/mL
- AUC(0-t) ([1]; 20 mg, AUC0-48, healthy males, single oral 20 mg): 149 ng·h/mL
- AUC(0-t) ([1]; 20 mg, AUClast, healthy males, single oral 20 mg): 149 ng·h/mL
- AUC(0-inf) ([1]; 40 mg): 321 ng·h/mL
- CL/F ([1]; 40 mg): 29.9 mL/min/kg
- Cmax ([1]; 40 mg): 123 ng/mL
- Tmax ([1]; 40 mg): 0.83 h
- Vd/F ([1]; 40 mg): 38.1 L/kg
- concentration at 24 h ([1]; 40 mg): 1.4 ng/mL
- half-life ([1]; 40 mg): 15.6 h
- AUC(0-t) ([1]; 40 mg, AUC0-24, healthy males, single oral 40 mg): 291 ng·h/mL
- AUC(0-t) ([1]; 40 mg, AUC0-48, healthy males, single oral 40 mg): 309 ng·h/mL
- AUC(0-t) ([1]; 40 mg, AUClast, healthy males, single oral 40 mg): 309 ng·h/mL
- AUC(0-inf) ([1]; 80 mg): 772 ng·h/mL
- CL/F ([1]; 80 mg): 25.3 mL/min/kg
- Cmax ([1]; 80 mg): 245 ng/mL
- Tmax ([1]; 80 mg): 1 h
- Vd/F ([1]; 80 mg): 33.5 L/kg
- concentration at 24 h ([1]; 80 mg): 5.5 ng/mL
- half-life ([1]; 80 mg): 15.3 h
- AUC(0-t) ([1]; 80 mg, AUC0-24, healthy males, single oral 80 mg): 647 ng·h/mL
- AUC(0-t) ([1]; 80 mg, AUC0-48, healthy males, single oral 80 mg): 730 ng·h/mL
- AUC(0-t) ([1]; 80 mg, AUClast, healthy males, single oral 80 mg): 730 ng·h/mL
- percent of subjects experiencing adverse events ([2]; all CX157 groups, single doses): 89%
- safety and tolerability ([2]; healthy volunteers, single dose escalation): safe and well tolerated
